Assays:
[1] = system: phospho-ERK; assay: Western blot of H358 cell lysates; type: cell-based; conditions: H358 cells, 72 h
[2] = system: phospho-Tyr1068 EGFR; conditions: H358 cells, 72 h, western blot
[3] = system: EGFR; conditions: H358 cells, 72 h, western blot
[4] = system: cyclin D1; assay: Western blot of H358 cell lysates; type: cell-based; conditions: H358 cells, 72 h
[5] = system: A549 cells; assay: Cell growth (alamar blue); type: cell-based; conditions: Homo sapiens
[6] = system: H358 cells; assay: Cell growth / drug combination analysis (alamar blue, Calcusyn); type: cell-based; conditions: Homo sapiens, NCI-H358
[7] = system: cleaved PARP; assay: Western blot for cleaved PARP (apoptosis marker) in H358 cells; type: cell-based; conditions: 72 h, range of concentrations
[8] = system: H460 cells; assay: Cell growth (alamar blue); type: cell-based; conditions: Homo sapiens, NCI-H460
[9] = system: H292 cells; assay: Drug combination analysis (Alamar blue, Calcusyn); conditions: 72 hours
[10] = system: H292 xenograft; assay: H292 xenograft model; type: in vivo, nude mice; conditions: seliciclib 50 mg bid, [1] 40 mg bid days 1-5 and 11-15; erlotinib 100 mg qd po, 50 mg from day 11
[11] = system: SkBr3 cells; assay: Cell growth / drug combination analysis (alamar blue, Calcusyn); type: cell-based; conditions: for Calcusyn combination value at 50% effective dose: in combination with Lapatinib
[12] = system: H358 xenograft; conditions: day 49, erlotinib 100 mg/kg po daily, 28 days; for mean tumour volume: seliciclib 50 mg/kg ip twice daily 5 days on/2 off
[13] = system: MCF7 cells; assay: Cell growth (alamar blue); type: cell-based
[14] = system: HER2; assay: Western blot of SkBr3 cell lysates; type: cell-based; conditions: SkBr3 cells, 24 h
[15] = system: cyclin D1; assay: Western blot of SkBr3 cell lysates; type: cell-based; conditions: SkBr3 cells, 24 h
[16] = system: H358 cells; assay: Flow cytometry of DNA content (propidium iodide); conditions: 1×IC50, 72 h
Protocol: (B) The DNA content of the cells was analysed by flow cytometry after propidium iodide staining. Sub-G1 cells are those that contain less DNA than normal diploid cells. Results are representative of two independent experiments.
H358 or H1650 cells were seeded in 10 cm plates at approximately 5×10^5 cells/plate and left to settle overnight. […] After 72 h treatment, cells were harvested by trypsinisation, washed twice in PBS and then fixed overnight in 70% (v/v) ethanol at −20° C. Cells were washed twice in PBS containing 1% (w/v) BSA, then incubated with 50 μg/ml propidium iodide and 50 μg/ml ribonuclease A for 20 min at room temperature. Cells were analysed for DNA content by flow cytometry using the CellQuest programme on a Becton Dickinson LSR flow cytometer.

Row | SMILES | Calcusyn combination value at 50% effective dose ([9]; in combination with AG1478) | Calcusyn combination value at 50% effective dose ([9]; in combination with Erlotinib) | Calcusyn combination value at 50% effective dose ([9]; in combination with Gefitinib) | Calcusyn combination value at 50% effective dose ([9]; in combination with Lapatinib) | effect on tumour growth [10] | other results
1 | COc1cc2ncnc(Nc3cccc(Cl)c3)c2cc1OC [AG1478, 4-(3-chloroanilino)-6,7-dimethoxyquinazoline] | – | – | – | – | – | ERK phosphorylation [1]: stimulated ERK phosphorylation at low concentrations; EGFR phosphorylation [2]: dose-dependent decrease; level of the EGFR [3]: decreased the level of the EGFR in a dose-dependent manner; cyclin D1 levels [4]: very little effect; IC50 [5]: 6.6 µM; IC50 [6]: 4 µM; PARP cleavage [7]: no increase in PARP cleavage; IC50 [8]: 10.4 µM
2 | CC[C@@H](Nc1nc(NCc2cccnc2)c2ncn(C(C)C)c2n1)C(C)(C)O [[1], (3R)-3-{9-isopropyl-6-[(pyridin-3-ylmethyl)-amino]-9H-purin-2-ylamino}-2-methyl-pentan-2-ol] | 0.42 | 0.71 | 0.50 | 0.69 | minimal if any effect on tumour growth | –
3 | CC[C@H](Nc1nc(NCc2cccnc2)c2ncn(C(C)C)c2n1)C(C)(C)O [[2], (3S)-3-{9-isopropyl-6-[(pyridin-3-ylmethyl)-amino]-9H-purin-2-ylamino}-2-methyl-pentan-2-ol] | 0.26 | 0.62 | 0.54 | 0.79 | – | –
4 | CC[C@H](Nc1nc(NCc2cccnc2)c2ncn(C(C)C)c2n1)[C@@H](C)O [[3], (2R3S)-3-{9-isopropyl-6-[(pyridine-3-ylmethyl)-amino]-9H-purin-2-ylamino}-pentan-2-ol] | 0.31 | 0.68 | 0.49 | 0.76 | – | –
5 | CC[C@H](Nc1nc(NCc2cnc(C)cc2C)c2ncn(C(C)C)c2n1)[C@@H](C)O [[4]] | 0.36 | 0.87 | 0.55 | 0.59 | – | Calcusyn combination value at 50% effective dose [11]: 0.67
6 | C#Cc1cccc(Nc2ncnc3cc(OCCOC)c(OCCOC)cc23)c1 [erlotinib] | – | – | – | – | moderately effective | mean tumour volume [12]: 444 mm^3; tumour growth inhibition ([12]; seliciclib 50 mg/kg ip twice daily): 44%
7 | CC[C@H](CO)Nc1nc(NCc2ccccc2)c2ncn(C(C)C)c2n1 [seliciclib, 2-(1-R-hydroxymethylpropylamino)-6-benzylamino-9-isopropylpurine] | 0.38 | 0.68 | 0.53 | 0.57 | minimal if any effect on tumour growth | ERK phosphorylation [1]: no significant effect; EGFR phosphorylation [2]: limited effect; IC70 (growth inhibition) [13]: 15.4 µM; level of the EGFR [3]: decreased the level of the EGFR in a dose-dependent manner; cyclin D1 levels [4]: modest decrease; HER2 levels [14]: decreased HER2 levels in a dose-dependent manner; mean tumour volume [12]: 717 mm^3; IC70 (growth inhibition) [11]: 20.4 µM; Calcusyn combination value at 50% effective dose [11]: 0.72; cyclin D1 levels [15]: significantly decreased cyclin D1 levels in a dose-dependent manner; PARP cleavage [7]: dose-dependent increase in cleaved PARP; G2/M phase cells [16]: characteristic increase in G2/M phase cells

Source: patent US9173938B2, “Combination of a purine-based CDK inhibitor with a tyrosine kinase inhibitor and use thereof in the treatment of proliferative disorders” (Cyclacel Limited, priority 2007, dated 2015)
